Entries after “also recorded” stand apart in the source; their conditions may differ.
Key:
H460 cells [1] = test: In vitro cell viability assay (MTT); format: cell-based, human; settings: NCI-H460, 36 h
Description: In vitro cell viability of IEP nanoparticles was determined by using the 3-[4,5-dimethylthiazol-2-yl]-2,5-diphenyltetrazolium bromide (MTT) assay. H460 cells were seeded at a density of 1×10^4 per well in96-well plates 24 hours prior to treatment. The cells were treated with different concentrations of IEP-PEG, IEP-PEG AA, free Indium chloride, free outer liposome and free etoposide phosphate for 36 h. The concentrations of indium chloride and free liposomes were maintained in equal mounts used for IEP-PEG and IEP-PEG AA. The medium was replaced with fresh medium containing 5% MTT (Biosynth Inc.) solution and incubated at 37° C. for another 4 h. The resulting formazan crystals were solubilized by adding 100 μL DMSO/Methanol (50:50) solution to each well. The absorbance at 570 nm wavelength was measured with a micro plate reader. Cell viability was calculated as the percentage of the absorbance of the treated cells to that of untreated cells.

caspase-3/7 = test: Caspase activation assay; format: cell-based, human; settings: NCI H-460 cells, 24 h
Description: H460 cells (2×10^5) were treated as mentioned above with all formulations. The cells were lysed with a radio-immunoprecipitation assay (RIPA) buffer that was supplemented with a protease inhibitor cocktail (Promega, Madison, Wis.). The protein lysates were collected by centrifugation at 14,000 rpm for 10 min at 4° C. Protein concentrations were determined using the BCA assay kit (Pierce Biotechnology) following the manufacturer's recommendations. Thirty micrograms protein of each sample was used to detect caspase-3/7 activity of the cell lysates by using an in vitro assay kit according to the manufacturer's instructions (Promega).

PARP-1 = test: Western blot analysis for PARP; format: cell-based, human; settings: H460 cells
Description: Forty micrograms of protein per lane was resolved by 4%-12% SDS-PAG Electrophoresis (Invitrogen) before being transferred to polyvinylidenedifluoride (PVDF) membranes (Bio-Rad). The membranes were blocked for 1 h with 5% skim milk at room temperature and then incubated with mouse monoclonal poly (ADPribose) polymerase-1 (PARP-1) antibodies (1:500 dilution; Santa Cruz biotechnology, Inc.) and with β-actin antibody (1:4000 dilution; Santa Cruz biotechnology, Inc.) overnight at 4° C. β-actin was probed as the loading control. The membranes were washed 3 times and then incubated with a secondary antibody (1:4000 dilutions; Santa Cruz biotechnology, Inc.) at room temperature for 1 h. Goat anti-mouse secondary antibody is used for PARP and β-actin primary antibody. Finally, the membranes were washed 4 times and developed by an enhanced chemiluminescence system according to the manufacturer's instructions (Thermo scientific).

H460 cells [2] = test: Cell cycle analysis (flow cytometry); format: cell-based, human; settings: H460, 24 h
Description: H460 cells (2×10^5) were seeded in 6-well plates 24 h prior to the treatment. The formulations, IEP-PEG, IEP-PEG AA, InCl3, free liposome and free drug were added and incubated for 24 h at 37° C., humidified CO2 incubator. The cells were trypsinized and washed with PBS followed by fixation in pre-cooled 70% ethanol at −20° C. for at least 1 h. Fixed cells were washed with PBS staining buffer (BD Pharmingen, San Diego, Calif.) and incubated with RNAase (final concentration […]) at 37° C. for 30 min, followed by incubation with […] propidium iodide (PI) at room temperature for 30 min. Finally, cells were washed and suspended in PBS, and analyzed with a FACS Canto flow cytometer (BD Biosciences) to measure the PI intensity, which correlates with the DNA content in the cell cycle. A total of 20,000 events are acquired for each sample and data were analyzed with FACS Diva software (BD Biosciences).

[3] = tested on: H460 subcutaneous xenograft; test: Tumor growth inhibition study, H460 xenograft; format: in vivo, mice; settings: IV every other day, EP 5 mg/kg
Description: A tumor growth inhibition study was completed on H460 subcutaneous xenograft mouse models. Mice were inoculated with 5×10^6 […] by subcutaneous injection. Treatment was started when the tumor volumes reached about 100-150mm^3. The mice were randomly assigned into treatment groups (n=5), and intravenously injected different formulations, including […] and free EP. Four injections were performed every other day for a total of 4 injections at an EP dose of 5 mg/kg. Tumor sizes were measured every other day with calipers across their two perpendicular diameters, and the tumor volume was calculated using the following formula: […] Body weight of each mouse is recorded every other day. Humane sacrifice of mice was performed when tumors reached 20 mm in one dimension.

H460 tumor = test: TUNEL and PCNA immunohistochemistry in H460 tumors; format: in vivo, mice; settings: three daily IV injections, 5 mg/kg
Description: In vivo tumor cell apoptosis was determined by TdT-mediated dUTP Nick-End Labeling (TUNEL) assay. […] Twenty-four hours after the final injection, mice were sacrificed and tumors are fixed in 4% paraformaldehyde solution for 12 h before being embedded in paraffin and sectioned at a thickness of 5 μm. The TUNEL staining was performed as recommended by the manufacturer (Promega). DAPI mounting medium (Vector Laboratories, Inc., Burlingame, Calif.) was dropped on the sections for nucleus staining. Images of TUNEL-stained tumor sections were captured with a fluorescence microscope (Nikon Corp., Tokyo, Japan). The percentage of apoptotic cells was obtained by dividing the number of apoptotic cells(TUNEL positive cells shown as green dots) from the number of total cells(blue nuclei stained by DAPI, not shown) in each microscopic field, and 10 representative microscopic fields were randomly selected in each treatment group for this analysis. Proliferation of tumor cells after the aforementioned treatments and dosing schedule was detected by immunohistochemistry, using an antibody against proliferating cell nuclear antigen (PCNA) (1:200 dilution, Santa Cruz). The immunohistochemistry was performed using a mouse-specific HRP/DAB detection IHC kit as recommended by the manufacturer (Abcam, Cambridge, Mass.). […]

A375M cells [4] = test: Cell toxicity assay (MTS); format: cell-based, human; settings: 48 h, read-out: IC50, growth inhibition
Description: A375M cells were seeded in 96-well plates at a density of 2000 cells/well and incubated in 10% FBS of DMEM containing 100 U/mL penicillin and […] streptomycin for 20 h. The medium was removed and replaced by Opti-MEM containing CDDP or LPC NPs. Forty-eight hours later, a CellTiter 96 AQueous One Solution Cell Proliferation Assay (Promega, Madison, Wis.) kit containing the tetrazolium compound MTS was used to assay cell viability according to the manufacturer's protocols. The IC50 values were calculated using Graphpad Prism 5 (Graphpad Software Inc.)

1205Lu cells = test: Cell toxicity assay (MTS); format: cell-based, human; settings: 48 h
Description: 1205Lu cells were seeded in 96-well plates at a density of 2000 cells/well and incubated in 10% FBS of DMEM containing 100 U/mL penicillin, and […] streptomycin for 20 h. Then, the medium was removed and replaced by Opti-MEM containing CDDP or LPC NPs. Forty-eight hours later, a CellTiter 96 AQueous One Solution Cell Proliferation Assay (Promega, Madison, Wis.) kit containing the tetrazolium compound MTS was used to assay cell viability according to the manufacturer's protocols.

[5] = Biodistribution of Pt in A375M tumor-bearing mice; format: in vivo; settings: twenty-four hours post-IV injection, 1.0 mg/kg Pt
Description: […] Tissue samples were digested by concentrated nitric acid overnight at room temperature and processed according to the procedure reported previously the literature.119, 120 The concentration of Pt was measured using ICP-MS.

[6] = tested on: A375M melanoma xenograft tumors; test: In vivo anticancer efficacy, A375M xenograft; design: species or system nude mice; settings: weekly IV, 1.0 mg/kg Pt
Description: All procedures involving experimental mice are performed in accordance with the protocols conformed to the Guide for the Care and Use of Laboratory Animals (NIH publication No. 86-23, revised 1985). Female athymic nude mice, 5-6 weeks old and weighing 18-22 g were obtained. 5×10^6 A375M cells were injected subcutaneously into the mice. After 10 days, the mice were randomly divided into four groups (4-6 mice per group). The mice were treated with weekly IV injections of CDDP and LPC NPs and saline as a control. A dose of 1.0 mg/kg Pt was administered. Thereafter, tumor growth and body weight were monitored. Tumor volume was calculated using the following formula: TV=(L×W^2)/2, with W being smaller than L. Finally, mice were sacrificed using a CO2 inhalation method.
After the therapeutic experiment was complete, blood samples were collected and allowed to clot for 2 h at room temperature. […] For liver and renal function experiments, the levels of aspartate aminotransferase, alanine aminotransferase, and blood urea nitrogen in the serum were measured. […]
The tumors were fixed in 4.0% paraformaldehyde (PFA), paraffin-embedded, and sectioned. […] TUNEL-positive nuclei were monitored by using a fluorescence microscope (Nikon, Tokyo, Japan). […] TUNEL-positive cells in three slides of images taken at 40× magnification were counted to quantify apoptosis.

1205Lu xenograft tumors = test: In vivo anticancer efficacy, 1205Lu xenograft; design: species or system nude mice; settings: 2.0 mg/kg Pt
Description: Female athymic nude mice, 5-6 weeks old and weighing 18-22 g were obtained. 1205Lu xenograft tumors were developed through subcutaneous injection of approximately 5 million 1205Lu cells in female nude mice. […] Tumor growth and body weight were monitored. Tumor volume was calculated using the following formula: TV=(L×W^2)/2, with W being smaller than L. Finally, mice were sacrificed by CO2 inhalation. Tumors were collected after treatment and were formalin fixed and processed for TUNEL assay.
The tumors were fixed in 4.0% paraformaldehyde (PFA) and subsequently paraffin-embedded and sectioned. To detect apoptotic cells in tumor tissues, a TUNEL assay, using a DeadEnd™ Fluorometric TUNEL System (Promega, Madison, Wis.), was performed, following the manufacturer's protocol. Cell nuclei, which were stained with green fluorescence, are defined as TUNEL-positive nuclei. TUNEL-positive nuclei were monitored using a fluorescence microscope (Nikon, Tokyo, Japan). The cell nuclei were stained with 4, 6-diaminidino-2-phenyl-indole (DAPI) (Vectashield, Vector Laboratories, Inc., Burlingame, Calif.). To quantify TUNEL-positive cells, green-fluorescence-positive cells are counted in three images taken at 40× magnification.

A375M cells [7] = test: In vitro neighboring effect study (co-culture, Annexin V); format: cell-based, human; settings: 48 h co-culture 1:10, A375M-GFP pretreated 50 μM Pt 4 h
Description: A375M-GFP cells (2×10^5) were seeded in 6-well plates (Corning Inc., Corning, N.Y.) 20 h before the beginning of the experiments. […] The A375M-GFP cells were mixed with A375M cells at the ratio of 1:10 (total cell number: 2×10^5) and reseeded into 6-well plates. After culturing for 48 h, the cells were stained with Hoechst 33342 (Sigma, St Louis, Mo.) and Annexin V Alexa Fluor® 568 Conjugate (Invitrogen, Carlsbad, Calif.). […] Results were processed using the Cellquest software (Becton-Dickinson).

[8] = Kidney and liver function parameters; format: in vivo, mice
Excerpt: To evaluate the kidney toxicity, organs were taken for histopathological observation using H&E staining. […] We also did a pathologic examination by H&E staining of other major organs (liver, lung, spleen and heart) from mice that received long-term treatments (not shown). […] Finally, we tested the blood parameters. Levels of secreted liver enzymes (AST and ALT), and blood urea nitrogen were all unchanged after a four-dose treatment with LPC or LPI, indicating a lack of damage to the liver and the kidneys (Table 2).
After the therapeutic experiment was complete, blood samples were collected and allowed to clot for 2 h at room temperature. Serum was obtained through centrifugation for 20 min at 2,000 g. For liver and renal function experiments, the levels of aspartate aminotransferase, alanine aminotransferase, and blood urea nitrogen in the serum were measured. Major organs were collected after treatment and were formalin fixed and processed for routine H&E staining using standard methods. Images were collected using a Nikon light microscope (Nikon). After the A375M tumor reached 600 mm^3, the mice were treated with two weekly IV injections of LPC NPs at a dose of 3.0 mg/kg Pt. Seven days post the last injection, the mice were sacrificed and the tumors are assayed with TUNEL.

[9] = H&E histopathology of organs; format: in vivo, mice; settings: long-term treatments

Row | Compound | cell viability / toxicity (MTT) (H460 cells [1]) | caspases 3 and 7 activity relative to untreated control (caspase-3/7) | increase in the 89 kDa PARP-1 cleavage product (PARP-1) | cells at G2/M phase (H460 cells [2]) | tumor growth [3] | PCNA positive cells in tumor sections (H460 tumor) | IC50 (A375M cells [4]) [µM] | IC50 (1205Lu cells) [µM] | accumulation in the tumors [5] | tumor growth [6] | apoptosis in tumor (TUNEL) (1205Lu xenograft tumors) [%] | tumor growth (1205Lu xenograft tumors; weekly IV) | apoptotic cells in the untreated cell population (A375M cells [7]) | AST and ALT functional parameters ([8]; A375M study, FIG. 33) | ALT ([8]; four-dose treatment, mean ± SD) [U/L] | AST ([8]; four-dose treatment, mean ± SD) [U/L] | BUN ([8]; four-dose treatment, mean ± SD) [mg/dL] | damage of other major organs (H&E) [9]
1 | COc1cc([C@@H]2c3cc4c(cc3[C@@H](O[C@@H]3O[C@@H]5CO[C@@H](C)O[C@H]5[C@H](O)[C@H]3O)[C@H]3COC(=O)[C@H]23)OCO4)cc(OC)c1OP(=O)(O)O [EP, Etoposide phosphate] | dose-dependent toxicity | 4 fold | readily detectable | About 50% | minimal impact on tumor growth | 75-80% |  |  |  |  |  |  |  |  |  |  |  | 
2 | [Cl-].[Cl-].[Cl-].[In+3] [Indium chloride] | no effect on viability | no effect | no effect | no discernable effect |  |  |  |  |  |  |  |  |  |  |  |  |  | 
3 | N.N.[Cl][Pt][Cl] [CDDP, cis-diaminedichloroplatinum(II)] |  |  |  |  |  |  | 10.2 | 12.4 | 1.2 % of the injected dose per gram | ineffective; also recorded: not effective at all | 6.3 | partial effect | less than 6% | fall within the normal range | 54.3 ± 9.7 | 105.7 ± 27.1 | 25.7 ± 0.6 | no toxicities in heart and lung
